pIC50: −log10 of the molar value.
Experiments:
[1] = target: SRC (Homo sapiens (Human), UniProt P12931); experiment: SelectScreen Kinase Profiling Services commercial assay (ThermoFisher), SRC; assay type: biochemical
[2] = target: YES1 (Homo sapiens (Human), UniProt P07947); experiment: SelectScreen Kinase Profiling Services commercial assay (ThermoFisher), YES1; assay type: biochemical
YES1, sequence (P07947 whole entry): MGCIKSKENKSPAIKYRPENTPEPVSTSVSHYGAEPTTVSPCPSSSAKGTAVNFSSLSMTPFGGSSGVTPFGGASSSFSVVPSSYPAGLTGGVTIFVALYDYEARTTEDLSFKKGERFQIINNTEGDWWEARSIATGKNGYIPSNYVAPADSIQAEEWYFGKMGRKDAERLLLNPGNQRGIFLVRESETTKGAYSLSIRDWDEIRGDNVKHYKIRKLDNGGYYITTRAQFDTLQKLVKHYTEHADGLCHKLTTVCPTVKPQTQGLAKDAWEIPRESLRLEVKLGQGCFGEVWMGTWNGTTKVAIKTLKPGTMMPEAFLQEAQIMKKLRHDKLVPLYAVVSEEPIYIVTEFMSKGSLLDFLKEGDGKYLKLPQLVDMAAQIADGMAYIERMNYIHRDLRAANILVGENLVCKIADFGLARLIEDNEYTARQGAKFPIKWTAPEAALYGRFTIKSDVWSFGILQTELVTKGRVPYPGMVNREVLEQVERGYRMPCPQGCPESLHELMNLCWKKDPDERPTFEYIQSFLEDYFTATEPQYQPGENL

SRC, sequence (P12931 whole entry): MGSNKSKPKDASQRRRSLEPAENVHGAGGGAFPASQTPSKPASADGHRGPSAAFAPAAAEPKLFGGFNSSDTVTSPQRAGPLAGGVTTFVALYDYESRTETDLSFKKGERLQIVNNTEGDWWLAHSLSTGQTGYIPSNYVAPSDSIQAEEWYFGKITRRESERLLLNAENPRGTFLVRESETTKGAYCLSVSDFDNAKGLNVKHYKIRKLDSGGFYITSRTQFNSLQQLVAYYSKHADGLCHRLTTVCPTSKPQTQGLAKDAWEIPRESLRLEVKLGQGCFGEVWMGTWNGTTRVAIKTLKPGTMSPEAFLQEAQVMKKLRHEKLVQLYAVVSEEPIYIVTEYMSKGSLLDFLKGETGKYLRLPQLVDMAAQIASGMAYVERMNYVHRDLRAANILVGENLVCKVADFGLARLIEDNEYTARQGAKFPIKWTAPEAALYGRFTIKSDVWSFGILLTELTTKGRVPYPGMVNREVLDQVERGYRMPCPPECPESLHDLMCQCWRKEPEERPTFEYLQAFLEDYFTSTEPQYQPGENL

| SMILES | pIC50 [1] | pIC50 [2] |
| --- | --- | --- |
| C=CC(=O)Nc1ccccc1Nc1nc(Nc2ccc(N3CCN(C)CC3)cc2)ncc1-c1ccc(OC)nc1 [Compound 9, N-(2-((5-(6-methoxypyridin-3-yl)-2-((4-(4-methylpiperazin-1-yl)phenyl)amino)pyrimidin-4-yl)amino)phenyl)acrylamide] | 8.00 to 9.00 | 8.00 to 9.00 |
| C=CC(=O)Nc1ccccc1Nc1nc(Nc2ccc(N3CCN(C)CC3)cc2)ncc1OCc1ccc(C)cc1 [Compound 15, N-(2-((5-((4-methylbenzyl)oxy)-2-((4-(4-methylpiperazin-1-yl)phenyl)amino)pyrimidin-4-yl)amino)phenyl)acrylamide] | 8.00 to 9.00 | 8.00 to 9.00 |
| C=CC(=O)Nc1ccccc1Nc1nc(Nc2ccc(N3CCN(C)CC3)cc2)ncc1OCc1c(C)cccc1Cl [Compound 17, N-(2-((5-((2-chloro-6-methylbenzyl)oxy)-2-((4-(4-methylpiperazin-1-yl)phenyl)amino)pyrimidin-4-yl)amino)phenyl)acrylamide] | 8.00 to 9.00 | – |
| C=CC(=O)Nc1ccccc1Nc1nc(Nc2ccc(N3CCN(C)CC3)cc2)ncc1C(=O)NCc1ccc(Oc2ccccc2)cc1 [Compound 19, 2-{[4-(4-methylpiperazin-1-yl)phenyl]amino}-N-[(4-phenoxyphenyl)methyl]-4-{[2-(prop-2-enamido)phenyl]amino}pyrimidine-5-carboxamide] | < 5.00 | < 5.00 |
| C=CC(=O)Nc1ccccc1Nc1nc(Nc2ccc(N3CCN(C)CC3)cc2)ncc1C(=O)Nc1c(C)cccc1C [Compound 28, N-(2,6-dimethylphenyl)-2-{[4-(4-methylpiperazin-1-yl)phenyl]amino}-4-{[2-(prop-2-enamido)phenyl]amino}pyrimidine-5-carboxamide] | 8.00 to 9.00 | > 9.00 |
| C=CC(=O)Nc1ccccc1Nc1nc(Nc2ccc(N3CCN(C)CC3)cc2)ncc1C(=O)Nc1c(C)cc(C(=O)O)cc1Cl [Compound 30, 3-chloro-5-methyl-4-(2-{[4-(4-methylpiperazin-1-yl)phenyl]amino}-4-{[2-(prop-2-enamido)phenyl]amino}pyrimidine-5-amido)benzoic acid] | < 5.00 | – |
| C=CC(=O)Nc1ccc(C)cc1Nc1nc(Nc2ccc(N3CCN(C)CC3)cc2)ncc1C(=O)Nc1c(C)cccc1Cl [Compound 35, N-(2-chloro-6-methylphenyl)-4-{[5-methyl-2-(prop-2-enamido)phenyl]amino}-2-{[4-(4-methylpiperazin-1-yl)phenyl]amino}pyrimidine-5-carboxamide] | 7.00 to 8.00 | – |
| C=CC(=O)Nc1c(F)cccc1Nc1nc(Nc2ccc(N3CCN(C)CC3)cc2)ncc1Cl [Compound 39, N-{2-[(5-chloro-2-{[4-(4-methylpiperazin-1-yl)phenyl]amino}pyrimidin-4-yl)amino]-6-fluorophenyl}prop-2-enamide] | 8.00 to 9.00 | – |
| C=CC(=O)Nc1cc(F)ccc1Nc1nc(Nc2ccc(N3CCN(C)CC3)cc2)ncc1Cl [Compound 40, N-{2-[(5-chloro-2-{[4-(4-methylpiperazin-1-yl)phenyl]amino}pyrimidin-4-yl)amino]-5-fluorophenyl}prop-2-enamide] | 8.00 to 9.00 | – |
| C=CC(=O)Nc1cccc(F)c1Nc1nc(Nc2ccc(N3CCN(C)CC3)cc2)ncc1C(=O)Nc1c(C)cccc1Cl [Compound 42, N-(2-chloro-6-methylphenyl)-4-{[2-fluoro-6-(prop-2-enamido)phenyl]amino}-2-{[4-(4-methylpiperazin-1-yl)phenyl]amino}pyrimidine-5-carboxamide] | 8.00 to 9.00 | > 9.00 |
| C=CC(=O)Nc1ccc(C)cc1Nc1nc(Nc2ccc(N3CCN(C)CC3)cc2)nc2ccsc12 [Compound 46, N-{4-methyl-2-[(2-{[4-(4-methylpiperazin-1-yl)phenyl]amino}thieno[3,2-d]pyrimidin-4-yl)amino]phenyl}prop-2-enamide] | 6.00 to 7.00 | 7.00 to 8.00 |
| C=CC(=O)Nc1ccc(C)cc1Nc1nc(Nc2ccc(N3CCN(C)CC3)cc2)nc2ccoc12 [Compound 47, N-{4-methyl-2-[(2-{[4-(4-methylpiperazin-1-yl)phenyl]amino}furo [3,2-d]pyrimidin-4-yl)amino]phenyl}prop-2-enamide] | 6.00 to 7.00 | 7.00 to 8.00 |
| C=CC(=O)Nc1cccc(CNc2nc(Nc3ccc(N4CCN(C)CC4)cc3)ncc2C(=O)Nc2c(C)cccc2Cl)c1 [Compound 49] | 7.00 to 8.00 | – |
| C=CC(=O)Nc1ccccc1CNc1nc(Nc2ccc(N3CCN(C)CC3)cc2)ncc1C(=O)Nc1c(C)cccc1Cl [Compound 50] | 8.00 to 9.00 | – |
| C=CC(=O)Nc1ccc(CNc2nc(Nc3ccc(N4CCN(C)CC4)cc3)ncc2C(=O)Nc2c(C)cccc2Cl)cc1 [Compound 51] | 7.00 to 8.00 | – |

Now from value to compound:

| pIC50 [1] | pIC50 [2] | SMILES |
| --- | --- | --- |
| 8.00 to 9.00 | 8.00 to 9.00 | C=CC(=O)Nc1ccccc1Nc1nc(Nc2ccc(N3CCN(C)CC3)cc2)ncc1CC [Compound 2, N-{2-[(5-ethyl-2-{[4-(4-methylpiperazin-1-yl)phenyl]amino}pyrimidin-4-yl)amino]phenyl}prop-2-enamide] |
| 8.00 to 9.00 | 8.00 to 9.00 | C=CC(=O)Nc1ccccc1Nc1nc(Nc2ccc(N3CCN(C)CC3)cc2)ncc1C [Compound 4, N-{2-[(5-methyl-2-{[4-(4-methylpiperazin-1-yl)phenyl]amino}pyrimidin-4-yl)amino]phenyl}prop-2-enamide] |
| 8.00 to 9.00 | 8.00 to 9.00 | C=CC(=O)Nc1ccccc1Nc1nc(Nc2ccc(N3CCN(C)CC3)cc2)ncc1-c1cccs1 [Compound 6, N-(2-((2-((4-(4-methylpiperazin-1-yl)phenyl)amino)-5-(thiophen-2-yl)pyrimidin-4-yl)amino)phenyl)acrylamide] |
| 8.00 to 9.00 | 8.00 to 9.00 | C=CC(=O)Nc1ccccc1Nc1nc(Nc2ccc(N3CCN(C)CC3)cc2)nc2ccsc12 [Compound 11, N-{2-[(2-{[4-(4-methylpiperazin-1-yl)phenyl]amino}thieno[3,2-d]pyrimidin-4-yl)amino]phenyl}prop-2-enamide] |
| 7.00 to 8.00 | 8.00 to 9.00 | C=CC(=O)Nc1ccccc1Nc1nc(Nc2ccc(N3CCN(C)CC3)cc2)nc(N)c1Cl [Compound 13, N-{2-[(6-amino-5-chloro-2-{[4-(4-methylpiperazin-1-yl)phenyl]amino}pyrimidin-4-yl)amino]phenyl}prop-2-enamide] |
| 6.00 to 7.00 | 7.00 to 8.00 | C=CC(=O)Nc1ccccc1Nc1nc(Nc2ccc(N3CCN(C)CC3)cc2)nc2sccc12 [Compound 14, N-{2-[(2-{[4-(4-methylpiperazin-1-yl)phenyl]amino}thieno[2,3-d]pyrimidin-4-yl)amino]phenyl}prop-2-enamide] |
| 5.00 to 6.00 | 6.00 to 7.00 | C=CC(=O)Nc1cccc(C)c1Nc1nc(Nc2ccc(N3CCN(C)CC3)cc2)ncc1Cl [Compound 31, N-{2-[(5-chloro-2-{[4-(4-methylpiperazin-1-yl)phenyl]amino}pyrimidin-4-yl)amino]-3-methylphenyl}prop-2-enamide] |
| 7.00 to 8.00 | 8.00 to 9.00 | C=CC(=O)Nc1ccc(C)cc1Nc1nc(Nc2ccc(N3CCN(C)CC3)cc2)ncc1Cl [Compound 32, N-{2-[(5-chloro-2-{[4-(4-methylpiperazin-1-yl)phenyl]amino}pyrimidin-4-yl)amino]-4-methylphenyl}prop-2-enamide] |
| 8.00 to 9.00 | 8.00 to 9.00 | C=CC(=O)Nc1ccccc1Nc1nc(Nc2ccc(N3CCN(C)CC3)cc2)ncc1Cl [SM1-71, reference compound] |
